This note sets out measurements from patent US11407736B2 (priority 2019, dated 2022).

Assay [1] concerns the target RIPK1 (Homo sapiens (Human), UniProt Q13546). As to the kind of experiment: RIPK1 ADP-Glo biochemical kinase assay. As to conditions: read-out: RIPK1 ADP-Glo Kinase (IC50). As for the experimental part: The final reaction volume was 5.0ul.
Adding 5 μl of ADP-Glo™ terminated the reaction.
(In ADP-Glo the light output rises with the ADP produced.)

The test system of assay [2] is L929 cells. Briefly: L929 cell necroptosis assay (TNFa + zVAD, CellTiter-Glo). Conditions: Mus musculus. The class given is cell-based, murine. The procedure: (§1) In this example, U937 and L929 cells were exposed to compounds of the present disclosure and a cell necroptosis assay was conducted to evaluate the compounds' activity against human RIP1 and murine RIP1.
U937 and L929 cells were obtained from the American Type Culture Collection (Manassa, Va., USA). Both cells were maintained in logarithmic growth phase in complete RPMI 1640 media (Sigma, ST Louis, Mo., USA) supplemented with 10% fetal bovine serum (Sigma, ST Louis, Mo., USA) at 37° C. with 5% CO2. For necroptosis assay, L929 cells were plated for 18 h in 100 μL/well medium at 10K cells/well in Costar 96-well black clear-bottom plates (Fisher Scientific, Hampton, N.H., USA); U937 cells were plated on the day of the assay in 50 4/well medium containing 60 uM zVAD-fink (Lonza, Basel, Switzerland) at 50K cells/well. Medium from L929 cells were removed from the 96-well plates and replaced with 50 μL/well new medium containing 40 uM zVAD-fink. Each compound of the present disclosure evaluated in this example was serially diluted in DMSO from 2.5 mM in 4-fold dilutions, and then diluted 1:125 in complete medium. 50 μL/well 2× of the compound was then added to the cells in the plates. […] The relative amount of necroptosis cells was determined by luminescent using a Wallac Victor2 Luminometer (PerkinElmer, Waltham, Mass., USA) and a CellTiter-Glo® Luminescent Cell Viability Reagent Assay (Promega, Madison, Wis., USA) added per manufacturer instructions after 18 hours of TNFa stimulation at 37° C. with 5% CO2.
On the technique in general: In ATP-based viability assays light output follows the ATP content of the culture.

For assay [3], the system named is U937 cells. Briefly: U937 cell necroptosis assay (TNFa + zVAD, CellTiter-Glo). The class given is cell-based, human. As to conditions: Homo sapiens. The procedure:
as §1
U937 and L929 cells were obtained from the American Type Culture Collection (Manassa, Va., USA). Both cells were maintained in logarithmic growth phase in complete RPMI 1640 media (Sigma, ST Louis, Mo., USA) supplemented with 10% fetal bovine serum (Sigma, ST Louis, Mo., USA) at 37° C. with 5% CO2. For necroptosis assay, L929 cells were plated for 18 h in 100 μL/well medium at 10K cells/well in Costar 96-well black clear-bottom plates (Fisher Scientific, Hampton, N.H., USA); U937 cells were plated on the day of the assay in 50 4/well medium containing 60 uM zVAD-fink (Lonza, Basel, Switzerland) at 50K cells/well. Medium from L929 cells were removed from the 96-well plates and replaced with 50 μL/well new medium containing 40 uM zVAD-fink. Each compound of the present disclosure evaluated in this example was serially diluted in DMSO from 2.5 mM in 4-fold dilutions, and then diluted 1:125 in complete medium. 50 μL/well 2× of the compound was then added to the cells in the plates. The cells were pre-incubated with the compound for 1 hour at 37° C. with 5% CO2 and before addition of 10 μL/well 1 1×TNFa (Peprotech, Rocky Hill, N.J., USA) to give a final concentration of 2 ng/mL for TNFa. The relative amount of necroptosis cells was determined by luminescent using a Wallac Victor2 Luminometer (PerkinElmer, Waltham, Mass., USA) and a CellTiter-Glo® Luminescent Cell Viability Reagent Assay (Promega, Madison, Wis., USA) added per manufacturer instructions after 18 hours of TNFa stimulation at 37° C. with 5% CO2. This example establishes that embodiments of the compounds described herein have unexpectedly potent activity against human RIP1 and murine RIP1, which allows their assessment in in vivo mouse models of disease.

Where [4] appears, read: L929, L929 cells, TNFa + zVAD, read-out: L929-CTG-recovery, L929, TNFa + zVAD (IC50).
[5] abbreviates: U-937, U937 cells, TNFa + zVAD, read-out: U937 Zvad TNF CTG Recovery, U937, TNFa + zVAD (IC50).

Where two headings read alike, the source gives them in different places.

RIPK1, sequence (Q13546 whole entry, species assumed): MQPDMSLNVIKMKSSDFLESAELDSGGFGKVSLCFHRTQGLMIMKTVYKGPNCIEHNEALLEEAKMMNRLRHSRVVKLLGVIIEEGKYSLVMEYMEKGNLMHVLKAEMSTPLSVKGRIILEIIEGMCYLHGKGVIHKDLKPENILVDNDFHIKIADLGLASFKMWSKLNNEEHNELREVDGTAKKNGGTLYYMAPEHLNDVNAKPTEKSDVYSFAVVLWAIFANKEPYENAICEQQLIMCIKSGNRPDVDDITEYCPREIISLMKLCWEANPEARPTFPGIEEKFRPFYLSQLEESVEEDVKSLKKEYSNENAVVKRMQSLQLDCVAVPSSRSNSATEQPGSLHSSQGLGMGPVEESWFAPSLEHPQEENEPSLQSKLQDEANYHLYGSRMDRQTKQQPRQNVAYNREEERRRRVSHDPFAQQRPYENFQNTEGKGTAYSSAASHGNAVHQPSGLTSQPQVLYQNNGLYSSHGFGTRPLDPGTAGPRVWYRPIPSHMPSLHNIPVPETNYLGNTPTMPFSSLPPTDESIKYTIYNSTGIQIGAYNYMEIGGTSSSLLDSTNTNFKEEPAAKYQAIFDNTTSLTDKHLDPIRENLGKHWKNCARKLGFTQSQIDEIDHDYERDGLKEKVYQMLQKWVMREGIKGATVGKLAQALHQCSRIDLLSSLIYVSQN

One may read the IC50 as the midpoint of a concentration-inhibition curve. For the compound `CN1C(=O)[C@@H](NC(=O)c2n[nH]c(Cc3ccc(F)cc3F)n2)COc2ccc(C#CC(C)(C)O)cc21` [Compound I-43, (S)-5-(2,4-difluorobenzyl)-N-(7-(3-hydroxy-3-methylbut-1-yn-1-yl)-5-methyl-4-oxo-2,3,4,5-tetrahydrobenzo[b][1,4]oxazepin-3-yl)-1H-1,2,4-triazole-3-carboxamide], the values for the IC50 in assay [1], in assay [2] (setting [4]) and in assay [3] (setting [5]) were 0.0854 µM, 0.0009 µM and 0.0038 µM, respectively.
The like results for `CN1C(=O)[C@@H](NC(=O)c2cc(Oc3cccc(F)c3)ccn2)COc2ccc(C#CC(C)(C)O)cc21` [Compound I-107, (S)-4-(3-fluorophenoxy)-N-(7-(3-hydroxy-3-methylbut-1-yn-1-yl)-5-methyl-4-oxo-2,3,4,5-tetrahydrobenzo[b][1,4]oxazepin-3-yl)picolinamide] were, in that order, 0.0231 µM, 0.161 µM and 0.0013 µM.
For `COc1ccc(-c2ccnc(C(=O)N[C@H]3COc4ccc(C#CC(C)(C)O)cc4N(C)C3=O)c2)cc1` [II-22, (S)—N-(7-(3-hydroxy-3-methylbut-1-yn-1-yl)-5-methyl-4-oxo-2,3,4,5-tetrahydrobenzo[b][1,4]oxazepin-3-yl)-4-(4-methoxyphenyl)picolinamide], the IC50 amounted to 0.31 µM in assay [1]; 56 µM in assay [2] (L929, read-out: L929-CTG-recovery, L929, TNFa + zVAD (IC50), L929 cells, TNFa + zVAD); 0.58 µM in assay [3] (U-937, read-out: U937 Zvad TNF CTG Recovery, U937, TNFa + zVAD (IC50), U937 cells, TNFa + zVAD).
With `CN1C(=O)[C@@H](NC(=O)n2cc(Cc3ccc(F)cc3)cn2)COc2ccc(C#CC3(O)CC4(CCC4)C3)cc21` [Compound I-224, (S)-4-(4-Fluorobenzyl)-N-(7-((2-hydroxyspiro[3.3]heptan-2-yl)ethynyl)-5-methyl-4-oxo-2,3,4,5-tetrahydrobenzo[b][1,4]oxazepin-3-yl)-1H-pyrazole-1-carboxamide], the IC50 in assay [1] came to 0.312 µM; in assay [2] (setting [4]), 0.22 µM; in assay [3] (setting [5]) it was 0.0015 µM.
With `CN1C(=O)[C@@H](NC(=O)c2ncn(Cc3ccccc3)n2)COc2ccc(CCC(=O)N3CCCC3)cc21` [Compound I-33, (S)-1-benzyl-N-(5-methyl-4-oxo-7-(3-oxo-3-(pyrrolidin-1-yl)propyl)-2,3,4,5-tetrahydrobenzo[b][1,4]oxazepin-3-yl)-1H-1,2,4-triazole-3-carboxamide], the IC50 in assay [1] was 0.0145 µM; in assay [2] (setting [4]) it was 1.23 µM; in assay [3] (setting [5]), 0.0015 µM.
On the same counts, the results for `CN1C(=O)[C@@H](NC(=O)c2cc(Oc3ccccc3)ccn2)COc2ccc(C#CCN3CCCC3)cc21` [Compound I-116, (S)—N-(5-methyl-4-oxo-7-(3-(pyrolidin-1-yl)prop-1-yn-1-yl)-2,3,4,5-tetrahydrobenzo[b][1,4]oxazepin-3-yl)-4-phenoxypicolinamide] are 0.0234 µM, 0.136 µM and 0.0007 µM.
Turning to `COc1cccc(-c2ccnc(C(=O)N[C@H]3COc4ccc(C#CC(C)(C)O)cc4N(C)C3=O)c2)c1` [II-23, (S)—N-(7-(3-hydroxy-3-methylbut-1-yn-1-yl)-5-methyl-4-oxo-2,3,4,5-tetrahydrobenzo[b][1,4]oxazepin-3-yl)-4-(3-methoxyphenyl)picolinamide], the IC50 in assay [1] came to 1.28 µM; in assay [3] (setting [5]), 0.545 µM.
On the same counts, the results for `CN1C(=O)[C@@H](NC(=O)c2cc(Oc3ccc(C#N)cc3)ccn2)COc2cc(C#CC(C)(C)O)ccc21` [II-17, (S)-4-(4-cyanophenoxy)-N-(8-(3-hydroxy-3-methylbut-1-yn-1-yl)-5-methyl-4-oxo-2,3,4,5-tetrahydrobenzo[b][1,4]oxazepin-3-yl)picolinamide] are 0.518 µM and 1.49 µM.
On the same counts, the results for `CN1C(=O)[C@@H](NC(=O)c2ccc(Oc3ccc(F)cc3)cn2)COc2ccc(C#CC(C)(C)O)cc21` [Compound I-122, (S)-5-(4-fluorophenoxy)-N-(7-(3-hydroxy-3-methylbut-1-yn-1-yl)-5-methyl-4-oxo-2,3,4,5-tetrahydrobenzo[b][1,4]oxazepin-3-yl)picolinamide] are 12.3 µM and 40.4 µM.
